Experiment [1] has as its system axilla odor of volunteers. The experiment can be described thus: Evaluation of deodorant effect (sniff test). Conditions: at D4 vs D1, odor score 0-10 by two trained judges. Format: in vivo, human. The protocol:
The volunteers were submitted to a “rest period” as described previously in Example 2. The odor was evaluated for the volunteers at D1 and at D4. At D1 the evaluation was made before the application of the test formulations, after the 20-minute warm-up period, and only the volunteers with starting values not less than 2 were included in the test. The odor evaluation scoring system was based on a range of axilla odor from no malodor (0), to moderate malodor (5), to extremely strong malodor (10). Two trained judges, familiar with the procedures and rating system, subjectively made the odor measurements of both axillae of each volunteer. The data correspond to the individual subject scores by the two trained judges and to the individual average.

Experiment [2] concerns axillae of healthy female volunteers. The experiment can be described thus: Antiperspirant efficacy, FDA hotroom protocol, gravimetric sweat collection. Type of experiment: in vivo, human. Conditions: after four days of once-daily topical treatment, D4 vs D1 baseline. The procedure: The antiperspirant efficacy and safety of investigated compounds were tested pursuant to protocol prescribed by the Food and Drug Administration, […] (Guidelines for Effectiveness Testing of OTC Antiperspirant Drug Products, 2004). The clinical study further conformed to Normative Resolution 196/96, CN/MS. The clinical study was divided into three tests and conducted with among at least thirty healthy female volunteers per test. They were between the ages of 18 and 50. The study was single-center, randomized, controlled, double blind assessment of the safety, tolerability and antiperspirant efficacy of TRPM8 agonists when applied to the axillae of healthy female volunteers. Before proceeding with the testing, all the volunteers were submitted to a “rest period” of 17 days, according to the FDA protocol. During this period, a placebo control formulation with no antiperspirancy effect was applied twice a day to both axillae. Treatments were applied once daily for four consecutive days (numbered D1 to D4). On D1, the baseline perspiration rate was determined before the antiperspirant formulations were applied. All the volunteers remained under hotroom conditions for a 40-minute warm-up period, divided into 2 periods of 20 minutes each. The term “hotroom condition” is the controlled environment (temperatures at 38° C.±1° C., and relative humidity of 35%±5%) established by the FDA standard protocol to thermally induce volunteer's perspiration. Cotton absorbent pads (Sussex®) were preweighed (P1) and placed in both axillae of each volunteer. At the end of the warm-up period, the perspiration collected on the absorbent pads was again weighed (P2) and the perspiration rates were obtained through gravimetric measurements (according to the formula P2-P1). According to FDA protocol, volunteers must produce at least 100 milligrams of sweat from the placebo control axilla in a 20-minute collection in the controlled environment, and at least one volunteer must produce more than 600 milligrams of sweat. Commercial menthol (YSC), Mentha essential oil (YSC) and Eucalyptus essential oil (Inter-Link) were presented as components of the antiperspirant formulations as described in the Example 1. Both commercial Mentha and Eucalyptus essential oils, which present menthol and eucalyptol, respectively, as the major components, were submitted to a GC-MS analysis in order to determine the appropriate amount of essential oils to be used to manufacture the antiperspirant compositions. In each treatment group as listed below, one of the antiperspirant formulations were applied to one axilla of the volunteers. […] Safety and tolerance were measured by assessment of visual effects and dermal irritancy, and subjective assessment of tolerance. […]

For `CC1CCC(C(C)C)C(O)C1` (centres unmarked) [menthol], the “improvement in axilla odor” value in experiment [1] is recorded as 6.4%±25.3. The “reduction in sweat production” value in experiment [2] (Group 1, one hour after application) is listed as 61.4%±23.1; in experiment [2] (Group 2, two hours after application) it was 63.7%±21.8; in experiment [2] (Group 3, four hours after application), 63.7%±21.8; in experiment [2] (Group 3, four hours after application, listed as menthol (YSC)) it was 75%±12.1.

These data come from US20110223222A1, “Antiperspirant Compositions and Methods for Reducing Perspiration in Humans” (priority 2008, published 2011).
